Data taken from patent publication US20160031863A1, “HISTONE DEACETYLASE INHIBITORS AND COMPOSITIONS AND METHODS OF USE THEREOF” (CHDI FOUNDATION, INC., priority 2013, published 2016).

The compounds below were run against T1, Histone Deacetylase 4 (HDAC4) catalytic domain (Homo sapiens, UniProt P56524) (assay: Inhibition of HDAC4 catalytic domain enzymatic activity, fluorogenic substrate Boc-Lys(Tfa)-AMC). Conditions: not given.
T1 construct: 6x histidine tag (C); purchased BioFocus
Format: biochemical
Source text: The potency of compounds is quantified by measuring the Histone Deacetylase 4 (HDAC4) catalytic domain enzymatic activity using the fluorogenic substrate, Boc-Lys(Tfa)-AMC. The substrate is deacetylated to Boc-Lys-AMC by HDAC4. Cleavage by trypsin results in the release of the fluorophore AMC from the deacetylated substrate. The fluorescence of the sample is directly related to the histone deacetylase activity in the sample.
(§1) Serial dilutions of the compounds being tested and control reference compound (1-(5-(3-((4-(1,3,4-oxadiazol-2-yl)phenoxy)methyl)-1,2,4-oxadiazol-5-yl)thiophen-2-yl)-2,2,2-trifluoroethanone) are made by first resuspending the lyophilized compound to a final concentration of 10 mM in 100% dimethyl sulfoxide (DMSO). Stocks of 60 μL aliquots of the 10 mM compound in DMSO are prepared and stored at −20° C. From one stock aliquot of each compound to be tested and the reference compound, a 16-point serial dilution is prepared according to Table 1 using a 125 μL 16-channel Matrix multi-channel pipette (Matrix Technologies Ltd).
2 μL (200×) of each diluted solution and each control (full activity: 100% DMSO alone or full inhibition 1 mM) is stamped into V-bottomed polypropylene 384-well compound plates using either the Bravo (384-well head from Agilent) or 12.5 μL 16-channel Matrix multi-channel pipette (Matrix Technologies Ltd).
A working solution of enzyme is prepared from a 500 μg/mL stock aliquot of HDAC4 catalytic domain (thawed on ice) diluted to 0.2 μg/mL with assay buffer (50 mM Tris-HCl, 137 mM NaCl, 2.7 mM KCl, and 1 mM MgCl2 at pH 8 and equilibrated to room temperature) just prior to the addition of the enzyme to the assay.
5× (50 μM) substrate is prepared just prior to the addition to the assay. A 1 mM substrate stock is made by diluting a 100 mM Boc-Lys(Tfa)-AMC in DMSO solution 1:100 by adding it drop-wise to assay buffer (equilibrated to room temperature) while vortexing at slow speed to prevent precipitation. The 5× substrate is prepared by diluting the 1 mM substrate solution 1:20 by adding it drop-wise to assay buffer (equilibrated to room temperature) while vortexing at slow speed to prevent precipitation.
3× (30 μM) Developer/Stop Solution is prepared just prior to addition to the plate by diluting a stock solution of 10 mM reference compound 1:333 in 25 mg/mL trypsin (PAA Laboratories Ltd.) equilibrated to room temperature.
5 μL of each solution of 1:20 diluted compound from above is transferred to a clear bottomed, black, 384-well assay plate using the Bravo or the Janus (384-well MDT head from Perkin Elmer). Using a 16-channel Matrix multi-channel pipette, 35 μL of the working solution of HDAC4 catalytic domain enzyme (0.2 μg/mL in assay buffer) is transferred to the assay plate. The assay is then started by adding 10 μL of 5× (50 μM) substrate to the assay plates using either the Bravo, Janus or 16-channel Matrix multi-channel pipette. The assay plate is then shaken for two minutes on an orbital shaker at 900 rpm (rotations per minute). Next the plate is incubated for 15 minutes at 37° C. The reaction is stopped by adding 25 μL of 3× (30 μM) developer/stop solution to the assay plates using either the Bravo, Janus or a 16-channel Matrix multi-channel pipette. Assay plates are then shaken for 5 minutes on an orbital shaker at 1200 rpm. Next, the assay plates are incubated at 37° C. for 1 hour in a tissue culture incubator. Finally, the fluorescence is measured (Excitation: 355 nm, Emission: 460 nm) using PerkinElmer EnVision in top read mode.

T1 sequence (P56524 648-1032): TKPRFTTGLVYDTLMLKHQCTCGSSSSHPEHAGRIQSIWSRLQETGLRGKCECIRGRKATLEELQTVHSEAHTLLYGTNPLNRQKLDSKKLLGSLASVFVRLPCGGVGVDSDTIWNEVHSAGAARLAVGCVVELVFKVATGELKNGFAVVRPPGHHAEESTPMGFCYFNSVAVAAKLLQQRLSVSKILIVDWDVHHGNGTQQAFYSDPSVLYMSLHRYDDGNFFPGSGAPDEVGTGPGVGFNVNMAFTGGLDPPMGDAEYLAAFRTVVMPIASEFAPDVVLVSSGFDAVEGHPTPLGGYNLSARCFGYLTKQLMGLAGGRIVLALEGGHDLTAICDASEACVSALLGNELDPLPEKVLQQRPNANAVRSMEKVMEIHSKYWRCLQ

Row | Structure (SMILES) | IC50
1 | O=C(NO)c1cc(-c2ccccc2)nn1-c1ccccc1 [Example 1, N-Hydroxy-1,3-diphenylpyrazole-5-carboxamide] | 10.3 µM
2 | O=C(NO)c1cc(-c2cccc3ccsc23)nn1-c1ccccc1 [Example 2, N-Hydroxy-3-(benzothiophen-7-yl)-1-phenyl-1H-pyrazole-5-carboxamide] | 0.12 µM
3 | Cc1ccccc1-c1cc(C(=O)NO)n(-c2ccccc2)n1 [Example 3, N-Hydroxy-3-(2-methylphenyl)-1-phenyl-1H-pyrazole-5-carboxamide] | 0.94 µM
4 | O=C(NO)c1cc(Cc2ccccc2)nn1-c1ccccc1 [Example 4, N-Hydroxy-3-benzyl-1-phenyl-1H-pyrazole-5-carboxamide] | 0.96 µM
5 | O=C(NO)c1cc(-c2ccccc2Cl)nn1-c1ccccc1 [Example 5, N-Hydroxy-3-(2-chlorophenyl)-1-phenyl-1H-pyrazole-5-carboxamide] | 0.38 µM
6 | O=C(NO)c1cc(C2=CCCC2)nn1-c1ccccc1 [Example 6, N-Hydroxy-3-(cyclopenten-1-yl)-1-phenyl-1H-pyrazole-5-carboxamide] | 2.7 µM
7 | O=C(NO)c1cc(C2CCCC2)nn1-c1ccccc1 [Example 7, N-Hydroxy-3-cyclopentyl-1-phenyl-1H-pyrazole-5-carboxamide] | 1.8 µM
8 | O=C(NO)c1cc(-c2cncc(Cl)c2)nn1-c1ccccc1 [Example 8] | 4.9 µM
9 | Cc1ncccc1-c1cc(C(=O)NO)n(-c2ccccc2)n1 [Example 9, N-Hydroxy-3-(2-methyl-3-pyridyl)-1-phenyl-1H-pyrazole-5-carboxamide] | 1.4 µM
10 | Cc1ccccc1-c1cc(C(=O)NO)n(-c2cccc(F)c2C)n1 [Example 10, N-hydroxy-1-(3-fluoro-2-methyl-phenyl)-3-(2-methyl-phenyl)-1H-pyrazole-5-carboxamide] | 0.75 µM
11 | CN1CC=C(c2cc(C(=O)NO)n(-c3ccccc3)n2)CC1 [Example 11, N-Hydroxy-3-(1-methyl-3,6-dihydro-2H-pyridin-4-yl)-1-phenyl-1H-pyrazole-5-carboxamide] | 0.24 µM
12 | Cc1ccccc1-c1cc(C(=O)NO)n(-c2ccccc2C)n1 [Example 12, N-Hydroxy-1,3-bis(2-methylphenyl)-1H-pyrazole-5-carboxamide] | 2.4 µM
13 | O=C(NO)c1cc(OCc2ccccc2)nn1-c1ccccc1 [Example 13, N-Hydroxy-3-benzyloxy-1-phenyl-1H-pyrazole-5-carboxamide] | 27.5 µM
14 | O=C(NO)c1cc(N2CCCC2)nn1-c1ccccc1 [Example 14, N-Hydroxy-1-phenyl-3-pyrrolidin-1-yl-1H-pyrazole-5-carboxamide] | 9.9 µM
15 | Cc1ccccc1-c1cc(C(=O)NO)n(-c2ccccc2)c1 [Example 15, N-Hydroxy-4-(2-methylphenyl)-1-phenyl-pyrrole-2-carboxamide] | 1.4 µM
16 | O=C(NO)c1cc(-c2ccccc2Cl)cn1-c1ccccc1 [Example 16, N-Hydroxy-4-(2-chlorophenyl)-1-phenyl-pyrrole-2-carboxamide] | 0.71 µM

Each compound was assayed on cellular histone deacetylase enzymatic activity in Jurkat E6-1 cells (assay: Inhibition of cellular HDAC activity in Jurkat E6-1 cells, fluorogenic substrate Boc-Lys(Tfa)-AMC). Conditions: Homo sapiens.
Format: cell-based
Experimental: The potency of the compounds is quantified by measuring the cellular histone deacetylase enzymatic activity using the fluorogenic substrate, Boc-Lys(Tfa)-AMC. After penetration in Jurkat E6-1 cells, the substrate is deacetylated to Boc-Lys-AMC. After cell lysis and cleavage by trypsin, the fluorophore AMC is released from the deacetylated substrate only. The fluorescence of the sample is directly related to the histone deacetylase activity in the sample.
Jurkat E6.1 cells are cultured according to standard cell culture protocols in Jurkat E6.1 Growth Media (RPMI without phenol red, 10% FBS, 10 mM HEPES, and 1 mM Sodium Pyruvate). Jurkat E6.1 cells are counted using a Coulter Counter and resuspended in Jurkat E6.1 growth media at a concentration of 75,000 cells/35 μL. 35 μL or 75,000 cells is seeded into Greiner microtitre assay plates. The plates are then incubated at 37° C. and 5% CO2 while other assay components are being prepared.
as §1, with “DMSO.” for “dimethyl sulfoxide (DMSO).”, “70” for “60”, “pipette.” for “pipette (Matrix Technologies Ltd).”
2 μL (200×) of each diluted solution and each control (full activity: 100% DMSO alone or full inhibition 1 mM) is stamped into V-bottom polypropylene 384-well compound plates using either the Bravo, Janus, or 12.5 μL 16-channel Matrix multi-channel pipette. Each well with the 200× compound solution is diluted 1:20 by the addition of 38 μL Jurkat assay buffer+DMSO (9.5% DMSO, RPMI without phenol red, 0.09% FBS, 9 mM Hepes, and 0.9 mM Sodium Pyruvate equilibrated to room temperature)
5× (500 μM) substrate is prepared just prior to the addition to the assay. The 5× substrate is prepared by diluting a 100 mM Boc-Lys(Tfa)-AMC in DMSO solution 1:200 by adding it drop-wise to Jurkat assay medium (RPMI without phenol red, 0.1% FBS, 10 mM Hepes, and 1 mM Sodium Pyruvate equilibrated to 37° C.) while vortexing at slow speed to prevent precipitation.
10 mL of 3× lysis buffer is prepared with 8.8 ml of 3× stock lysis buffer (50 mM Tris-HCl, pH 8.0, 137 mM NaCl, 2.7 mM KCl, 1 mM MgCl2, 1% Nonidet P40 Substitute equilibrated to room temperature) and 1.2 mL of 3 mg/mL Trypsin equilibrated to room temperature.
5 μL of each solution of 1:20 diluted compound from above is transferred to the Greiner microtitre assay plates with 75,000 cells/well using the Bravo. Cells are then incubated for 2 hours at 37° C. and 5% CO2. The assay is then started by adding 10 μL of 5× (500 μM) substrate to the assay plate using either the Bravo or 16-channel Matrix multi-channel pipette. The cells are then incubated for 3 hours at 37° C. and 5% CO2. Next, 25 μL of 3× lysis buffer is added to each well using either the 125 μL 16 channel pipette or the Bravo. The assay plate is then incubated overnight (15-16 hours) at 37° C. and 5% CO2. The following day, the plates are shaken on an orbital shaker for 1 minute at 900 rpm. Finally the top read fluorescence (Excitation: 355 nm, Emission: 460 nm) is measured using PerkinElmer EnVision.

Row | Structure (SMILES) | IC50
17 | O=C(NO)c1cc(-c2ccccc2)nn1-c1ccccc1 [Example 1, N-Hydroxy-1,3-diphenylpyrazole-5-carboxamide] | 24.2 µM
18 | O=C(NO)c1cc(-c2cccc3ccsc23)nn1-c1ccccc1 [Example 2, N-Hydroxy-3-(benzothiophen-7-yl)-1-phenyl-1H-pyrazole-5-carboxamide] | 2.72 µM
19 | Cc1ccccc1-c1cc(C(=O)NO)n(-c2ccccc2)n1 [Example 3, N-Hydroxy-3-(2-methylphenyl)-1-phenyl-1H-pyrazole-5-carboxamide] | 7.3 µM
20 | O=C(NO)c1cc(Cc2ccccc2)nn1-c1ccccc1 [Example 4, N-Hydroxy-3-benzyl-1-phenyl-1H-pyrazole-5-carboxamide] | 10.2 µM
21 | O=C(NO)c1cc(-c2ccccc2Cl)nn1-c1ccccc1 [Example 5, N-Hydroxy-3-(2-chlorophenyl)-1-phenyl-1H-pyrazole-5-carboxamide] | 2.82 µM
22 | O=C(NO)c1cc(C2=CCCC2)nn1-c1ccccc1 [Example 6, N-Hydroxy-3-(cyclopenten-1-yl)-1-phenyl-1H-pyrazole-5-carboxamide] | 20.3 µM
23 | O=C(NO)c1cc(C2CCCC2)nn1-c1ccccc1 [Example 7, N-Hydroxy-3-cyclopentyl-1-phenyl-1H-pyrazole-5-carboxamide] | 12.1 µM
24 | O=C(NO)c1cc(-c2cncc(Cl)c2)nn1-c1ccccc1 [Example 8] | 41.6 µM
25 | Cc1ncccc1-c1cc(C(=O)NO)n(-c2ccccc2)n1 [Example 9, N-Hydroxy-3-(2-methyl-3-pyridyl)-1-phenyl-1H-pyrazole-5-carboxamide] | 6.9 µM
26 | Cc1ccccc1-c1cc(C(=O)NO)n(-c2cccc(F)c2C)n1 [Example 10, N-hydroxy-1-(3-fluoro-2-methyl-phenyl)-3-(2-methyl-phenyl)-1H-pyrazole-5-carboxamide] | 5.68 µM
27 | CN1CC=C(c2cc(C(=O)NO)n(-c3ccccc3)n2)CC1 [Example 11, N-Hydroxy-3-(1-methyl-3,6-dihydro-2H-pyridin-4-yl)-1-phenyl-1H-pyrazole-5-carboxamide] | 4.07 µM
28 | Cc1ccccc1-c1cc(C(=O)NO)n(-c2ccccc2C)n1 [Example 12, N-Hydroxy-1,3-bis(2-methylphenyl)-1H-pyrazole-5-carboxamide] | 16 µM
29 | O=C(NO)c1cc(OCc2ccccc2)nn1-c1ccccc1 [Example 13, N-Hydroxy-3-benzyloxy-1-phenyl-1H-pyrazole-5-carboxamide] | > 50 µM
30 | O=C(NO)c1cc(N2CCCC2)nn1-c1ccccc1 [Example 14, N-Hydroxy-1-phenyl-3-pyrrolidin-1-yl-1H-pyrazole-5-carboxamide] | 46.2 µM
31 | Cc1ccccc1-c1cc(C(=O)NO)n(-c2ccccc2)c1 [Example 15, N-Hydroxy-4-(2-methylphenyl)-1-phenyl-pyrrole-2-carboxamide] | 13.8 µM
32 | O=C(NO)c1cc(-c2ccccc2Cl)cn1-c1ccccc1 [Example 16, N-Hydroxy-4-(2-chlorophenyl)-1-phenyl-pyrrole-2-carboxamide] | 6.17 µM
